The results in this text go back to patent US10544130B2, “Metallo-beta-lactamase inhibitors” (priority 2015, dated 2020).

Each structure is given as a SMILES string. Like-named read-outs stand apart in the source and are kept apart here.

The subject of series [1] is Serratia marcescens expressing IMP-1 (CL5741). In kind it is cell-based. Conditions: with imipenem 1 μg/ml, 95% inhibition of bacterial growth. On the procedure: Antibiotic Potentiation Activity: Determination of Synergistic Concentration
The bacterial strains tested included the clinical strains Escherichia coli expressing NDM-1 (CLB30005, CLB30016), Serratia marcescens expressing IMP-1 (CL5741), and Klebsiella pneumoniae expressing VIM-1 (IHMA599644). Inhibitor activity was measured in the presence and absence of imipenem in a 384-well microplate.
The clinical strains CLB30016, CL5741 and IHMA599644 were grown on trypticase soy agar containing 5% sheep's blood. The bacteria on agar plates were incubated at 35° C. with humidity overnight. The following day, individual colonies from each clinical strain were picked and resuspended in 5 ml saline to attain an OD600 of 0.14, 0.11, 0.15 and 0.13, for CLB30016, CL5741 and IHMA599644, respectively. These were further diluted 1:100 into 1.1× CAMHB and used to inoculate the test wells as described below.
Imipenem in 10 mM 3-(N-morpholino)propanesulfonic acid (MOPS, pH 7) was stored in single use aliquots at −80° C. […] On the day of the assay, 4 μl of antibiotic was added to 45 ul of bacteria followed by 1 μl of test compound and mixed by pipetting and with an orbital shaker. The concentration of antibiotic used in the assay was 1 μg/ml. Microplates were covered and incubated at 35° C. for 22 hours to 24 hours. At the end of the incubation, absorbance was determined using a spectrophotometer.

In series [2] the test system is Pseudomonas aeruginosa PAO1 MB9798 (efflux+, IMP-1). Conditions: ratio MITC95 PA 9798/MITC95 PA 9799; imipenem at 2 μg/mL. A digest of the protocol:
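Isogenic PAO1 pair (efflux+ MB9798, efflux− MB9799, both IMP-1) tested by microbroth MIC with fixed imipenem and/or ceftazidime, usually at CLSI breakpoint, plus fixed class A/C inhibitor against AmpC. MBL inhibitor titrated; concentration restoring susceptibility recorded and fold difference between strains taken as efflux extent.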

Consider `Cn1c(N)nc2c(-c3ccc(S(=O)(=O)NC[C@@H](O)CN)c(S(N)(=O)=O)c3-c3nn[nH]n3)cccc21` [Example 308, (S)-4-(2-amino-1-methyl-1H-benzo[d]imidazol-4-yl)-N1-(3-amino-2-hydroxypropyl)-3-(2H-tetrazol-5-yl)benzene-1,2-disulfonamide], for which, in series [1], the “Serratia marcescens (IMP-1) MITC95” value came out at 0.7813 µM. For the same compound, the Efflux ratio in series [2] is reported as 1.00. In the same order, the values of `N[C@@H]1CNC[C@@H]1NS(=O)(=O)c1ccc(-c2cccn3ccnc23)c(-c2nn[nH]n2)c1S(N)(=O)=O` [Example 328, N1-((3S,4R)-4-aminopyrrolidin-3-yl)-4-(imidazo[1,2-a]pyridin-8-yl)-3-(2H-tetrazol-5-yl)benzene-1,2-disulfonamide] are 1.563 µM and 1.00.

Turning to `Nc1ccc2cccc(-c3ccc(S(=O)(=O)N[C@H]4CNC[C@H]4N)c(S(N)(=O)=O)c3-c3nn[nH]n3)c2n1` [Example 324, N1-((3S,4R)-4-aminopyrrolidin-3-yl)-4-(2-aminoquinolin-8-yl)-3-(1H-tetrazol-5-yl)benzene-1,2-disulfonamide], the “Serratia marcescens (IMP-1) MITC95” value in series [1] worked out at 0.7813 µM. Besides, the Efflux ratio in series [2] is 1.00.

Take `NCCNS(=O)(=O)c1ccc(-c2cccc3ccc(N)nc23)c(-c2nn[nH]n2)c1S(N)(=O)=O` [Example 355, N1-(2-aminoethyl)-4-(2-aminoquinolin-8-yl)-3-(2H-tetrazol-5-yl)benzene-1,2-disulfonamide]: in series [1], the “Serratia marcescens (IMP-1) MITC95” value was 0.7813 µM. Besides, the Efflux ratio in series [2] is recorded as 1.00. On the same counts, the results for `NCCCCNS(=O)(=O)c1ccc(-c2cccc3[nH]c(N)nc23)c(-c2nn[nH]n2)c1S(N)(=O)=O` [Example 258, 4-(2-amino-1H-benzo[d]imidazol-7-yl)-N1-(4-aminobutyl)-3-(2H-tetrazol-5-yl)benzene-1,2-disulfonamide] are 0.7813 µM and 1.00. On the same counts, the results for `NCC(CN)NS(=O)(=O)c1ccc(-c2cccn3ccnc23)c(-c2nn[nH]n2)c1S(N)(=O)=O` [Example 386, N1-(1,3-diaminopropan-2-yl)-4-(imidazo[1,2-a]pyridin-8-yl)-3-(2H-tetrazol-5-yl) benzene-1,2-disulfonamide] are 1.563 µM and 1.00.

For the compound `NC[C@@H](N)CNS(=O)(=O)c1ccc(-c2cnc3cc[nH]c3c2)c(-c2nn[nH]n2)c1S(N)(=O)=O` [Example 378, (R)-N 1-(2,3-diaminopropyl)-4-(1H-pyrrolo[3,2-b]pyridin-6-yl)-3-(2H-tetrazol-5-yl)benzene-1,2-disulfonamide], the “Serratia marcescens (IMP-1) MITC95” value in series [1] was 1.563 µM. Also, in series [2], the Efflux ratio was 2.00. In the same order, the values of `N[C@H]1C=C(c2ccc(S(=O)(=O)N[C@@H]3CCNC3)c(S(N)(=O)=O)c2-c2nn[nH]n2)CCC1` [Example 339, (R)-5′-amino-N4-((R)-pyrrolidin-3-yl)-2-(2H-tetrazol-5-yl)-2′,3′,4′,5′-tetrahydro-[1,1′-biphenyl]-3,4-disulfonamide] are 1.563 µM and 4.00. Consider `Nc1nc2c(-c3ccc(S(=O)(=O)NC[C@H]4CCNC4)c(S(N)(=O)=O)c3-c3nn[nH]n3)cccc2[nH]1` [Example 259, (S)-4-(2-amino-1H-benzo[d]imidazol-4-yl)-N1-(pyrrolidin-3-ylmethyl)-3-(2H-tetrazol-5-yl)benzene-1,2-disulfonamide], for which the “Serratia marcescens (IMP-1) MITC95” value in series [1] worked out at 0.7813 µM. In addition, the Efflux ratio in series [2] is given as 1.00. `Nc1ncc(-c2ccc(S(=O)(=O)N[C@@H]3CCNC3)c(S(N)(=O)=O)c2-c2nn[nH]n2)s1` [Example 284, (R)-4-(2-aminothiazol-5-yl)-N1-(pyrrolidin-3-yl)-3-(2H-tetrazol-5-yl)benzene-1,2-disulfonamide]: the “Serratia marcescens (IMP-1) MITC95” value in series [1] is 0.7813 µM.

Consider `Nc1ccc(-c2ccc(S(=O)(=O)NC3CC(N)C3)c(S(N)(=O)=O)c2-c2nn[nH]n2)cn1` [Example 483, N1-((1R,3R)-3-aminocyclobutyl)-4-(6-aminopyridin-3-yl)-3-(2H-tetrazol-5-yl)benzene-1,2-disulfonamide], for which, in series [1], the “Serratia marcescens (IMP-1) MITC95” value amounted to 0.7813 µM.

On to `N[C@@H]1C=C(c2ccc(S(=O)(=O)N[C@@H]3CCNC3)c(S(N)(=O)=O)c2-c2nn[nH]n2)CCC1` [Example 340, (S)-5′-amino-N4-((R)-pyrrolidin-3-yl)-2-(2H-tetrazol-5-yl)-2′,3′,4′,5′-tetrahydro[1,1′-biphenyl]-3,4-disulfonamide], for which the “Serratia marcescens (IMP-1) MITC95” value in series [1] turned out to be 1.563 µM. In series [2], the Efflux ratio is recorded as 4.00.

With `NC[C@@H](O)CNS(=O)(=O)c1ccc(-c2ccc3nccn3c2)c(-c2nn[nH]n2)c1S(N)(=O)=O` [Example 420, (R)-N^1-(3-amino-2-hydroxypropyl)-4-(imidazo[1,2-a]pyridin-6-yl)-3-(2H-tetrazol-5-yl)benzene-1,2-disulfonamide], the “Serratia marcescens (IMP-1) MITC95” value in series [1] turned out to be 1.563 µM. As to `Nc1ccc(-c2ccc(S(=O)(=O)N[C@H]3CNC[C@H]3O)c(S(N)(=O)=O)c2-c2nn[nH]n2)cn1` [Example 410, 4-(6-aminopyridin-3-yl)-N^1-((3S,4R)-4-hydroxypyrrolidin-3-yl)-3-(2H-tetrazol-5-yl)benzene-1,2-disulfonamide], in series [1], the “Serratia marcescens (IMP-1) MITC95” value amounted to 0.7813 µM. In the case of `Nc1ccc(-c2ccc(S(=O)(=O)NC[C@@H]3CCNC3)c(S(N)(=O)=O)c2-c2nn[nH]n2)cn1` [Example 491, (R)-4-(6-aminopyridin-3-yl)-N1-(pyrrolidin-3-ylmethyl)-3-(2H-tetrazol-5-yl)benzene-1,2-disulfonamide], the “Serratia marcescens (IMP-1) MITC95” value in series [1] came to 0.7813 µM.

Consider `NS(=O)(=O)c1c(S(=O)(=O)NC[C@H]2CNCCN2)ccc(-c2cccc3[nH]cnc23)c1-c1nn[nH]n1` [Example 481, (R)-4-(1H-benzo[d]imidazol-4-yl)-N1-(piperazin-2-ylmethyl)-3-(1H-tetrazol-5-yl)benzene-1,2-disulfonamide], for which the “Serratia marcescens (IMP-1) MITC95” value in series [1] turned out to be 1.563 µM.

On to `Cl.Cl.NCCCNS(=O)(=O)c1ccc(-c2ccc(N)nc2)c(-c2nn[nH]n2)c1S(N)(=O)=O` [Example 496, N1-(3-aminopropyl)-4-(6-aminopyridin-3-yl)-3-(2H-tetrazol-5-yl)benzene-1,2-disulfonamide hydrogen chloride], for which, in series [1] (CL5741), the “Serratia marcescens (IMP-1) MITC95” value worked out at 0.7813 µM.

As to `NCCNS(=O)(=O)c1ccc(-c2ccc3sc(CN)nc3c2)c(-c2nn[nH]n2)c1S(N)(=O)=O` [Example 476, N1-(2-aminoethyl)-4-(2-(aminomethyl)benzo[d]thiazol-5-yl)-3-(2H-tetrazol-5-yl)benzene-1,2-disulfonamide], in series [1], the “Serratia marcescens (IMP-1) MITC95” value was 0.7813 µM.

For the compound `NC[C@H](CO)NS(=O)(=O)c1ccc(-c2cccc3nc(N)[nH]c23)c(-c2nn[nH]n2)c1S(N)(=O)=O` [Example 427, (R)-4-(2-amino-1H-benzo[d]imidazol-4-yl)-N^1-(1-amino-3-hydroxypropan-2-yl)-3-(1H-tetrazol-5-yl)benzene-1,2-disulfonamide], in series [1], the “Serratia marcescens (IMP-1) MITC95” value turned out to be 0.7813 µM. `NC[C@@H](CO)NS(=O)(=O)c1ccc(-c2ccc(N)nc2)c(-c2nn[nH]n2)c1S(N)(=O)=O` [Example 409, (S)-N^1-(1-amino-3-hydroxypropan-2-yl)-4-(6-aminopyridin-3-yl)-3-(2H-tetrazol-5-yl)benzene-1,2-disulfonamide]: the “Serratia marcescens (IMP-1) MITC95” value in series [1] was determined as 1.563 µM. For the compound `C[C@H](CN)NS(=O)(=O)c1ccc(-c2ccc(N)nc2)c(-c2nn[nH]n2)c1S(N)(=O)=O` [Example 393, (R)—N^1-(1-aminopropan-2-yl)-4-(6-aminopyridin-3-yl)-3-(2H-tetrazol-5-yl)benzene-1,2-disulfonamide], the “Serratia marcescens (IMP-1) MITC95” value in series [1] is 1.042 µM.

On to `CN(CCN)S(=O)(=O)c1ccc(-c2cccc3[nH]c(N)nc23)c(-c2nn[nH]n2)c1S(N)(=O)=O` [Example 449, 4-(2-amino-1H-benzo[d]imidazol-4-yl)-N^1-(2-aminoethyl)-N^1-methyl-3-(2H-tetrazol-5-yl)benzene-1,2-disulfonamide], for which the “Serratia marcescens (IMP-1) MITC95” value in series [1] is 1.563 µM. On the same count and under the same terms, the result for `Nc1nc2c(-c3ccc(S(=O)(=O)N[C@@H]4C[C@H]4N)c(S(N)(=O)=O)c3-c3nnn[nH]3)cccc2[nH]1` [Example 448, 4-(2-amino-1H-benzo[d]imidazol-4-yl)-N^1-((1R,2R)-2-aminocyclopropyl)-3-(1H-tetrazol-5-yl)benzene-1,2-disulfonamide] reads 1.563 µM.
